Data on one compound can be found in publication PMC10671074, “Tumor Regression upon Intratumoral and Subcutaneous Dosing of the STING Agonist ALG-031048 in Mouse Efficacy Models” (International Journal of Molecular Sciences, 2023).

For data set [1], the target named is T1, STING R232 (Homo sapiens, UniProt Q86WV6, H232R). Briefly: HEK 293 STING R232 IFN-β reporter assay. Set-up: host or cells: 293T-Dual hSTING-R232 (HEK 293T derived). Type of data set: cell-based. The conditions noted are these: HEK 293 STING R232 cells, digitonin dosing buffer 30 min, 20 h; mean±standard deviation; read-out: Reporter Cell Assay EC50, STING R232 IFN-β. The procedure: Assays were set up after allowing cells to adhere for 48 h. Compounds dissolved in water were serially diluted in dosing buffer containing 10 µg/mL of digitonin (MP Biomedicals, Solon, OH, USA). Media were aspirated from the cells, and 50 µL of buffer with compound was added in triplicate. […] An aliquot of 100 µL of CellTiter-Glo® (Promega, Madison, WI, USA) was added to the original plate still containing the cells, and luminescence was determined to measure viability. All readouts were measured on an Envision plate reader from Perkin Elmer. Data were analyzed using GraphPad™ Prism’s version 8.0 [Agonist] vs. response—variable slope (four parameters) model.
Target sequence in this assay (Q86WV6 whole entry H232R): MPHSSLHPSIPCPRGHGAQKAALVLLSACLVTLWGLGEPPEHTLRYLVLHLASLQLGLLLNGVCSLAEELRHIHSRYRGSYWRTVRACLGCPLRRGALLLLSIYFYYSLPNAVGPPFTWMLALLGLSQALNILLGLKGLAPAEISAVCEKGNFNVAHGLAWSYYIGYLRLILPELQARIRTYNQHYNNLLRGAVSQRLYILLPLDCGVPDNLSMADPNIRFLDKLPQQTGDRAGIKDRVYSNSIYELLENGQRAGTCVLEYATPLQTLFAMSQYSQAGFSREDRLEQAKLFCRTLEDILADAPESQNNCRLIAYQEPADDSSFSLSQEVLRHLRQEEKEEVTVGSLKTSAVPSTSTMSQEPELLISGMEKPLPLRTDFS
For orientation: In a reporter assay the amount or activity of a reporter protein is the signal.

Data set [2] deals with primary human immature dendritic cells. The data set is described as follows: Activation of primary human immature dendritic cells (CD83/CD86 flow cytometry). The settings on record: for pEC50: Homo sapiens, Dendritic cell, iDCs, 72 h after stimulation. Type of data set: cell-based. From the text:
Frozen human PBMCs (100 × 10^6 cells) were obtained from Stem Cell Technologies (Kent, WA, USA). Monocytes were purified from PBMCs using a CD14^+ pan-monocyte-negative isolation kit and an LS column (Miltenyi Biotec, Bergisch Gladbach, Germany). Magnetically labeled non-target cells were depleted by retaining them within a MACS column in the magnetic field of a MACS Separator, while highly purified unlabeled CD1 D16^− cells were collected and used to generate dendritic cells. To obtain immature monocyte-derived dendritic cells (iMDDCs), enriched monocytes were cultured in Mo-DC differentiation medium (Miltenyi Biotec) supplemented with human IL-4 (250 IU/mL, Miltenyi Biotec) and human GM-CSF (800 IU/mL, Miltenyi Biotec) at 37 °C in a T-150 flask in a 5% CO2 humidified incubator for 5 days; fresh media was replenished every 2–3 days.
[…] An aliquot of iMDDCs was also cultured in maturation media for 24–48 h and used as a control containing RPMI 1640, 10% FBS, 2 mM L-glutamine, and human TNF-α (6000 IU/mL, Miltenyi Biotec). The supernatant from the plate was frozen to assess cytokine production, and cells were analyzed via flow cytometry.
Cells were incubated with phosphate-buffered saline (PBS) containing 2% FBS and 2 mM of EDTA (FACS buffer) supplemented with 2 mg/mL of normal human IgG on ice for 15 min to block Fc receptors. The cell suspension was then incubated with a predetermined optimal concentration of the appropriate fluorescent dye-labeled monoclonal antibodies (mAbs) against human cell surface markers on ice for 30 min. The fluorescent dye-labeled mAbs against human cell surface molecules included anti-CD209, anti-CD14, anti-CD11c, anti-CD40, anti-HLA-DR, anti-CD86, and anti-CD83 (BD Biosciences, Franklin Lakes, NJ, USA or BioLegend, San Diego, CA, USA). In addition, a fixable live/dead stain (Thermo Fisher Scientific) at a dilution of 1:1000 was added to exclude dead cells. After several washes with FACS buffer, cells were resuspended in FACS buffer and analyzed on an Attune Nxt flow cytometer (Thermo Fisher Scientific) with FlowJo v10 software (BD Biosciences). An aliquot of the cells to be analyzed served as controls by using “fluorescent minus-one” to establish gates and determine the frequency of positively stained cells. Ultra-comp beads (Thermo Fisher Scientific) were used as single-stained controls to set up compensation on the flow cytometer.

Data set [3] deals with T1, STING R232. Briefly: Thermal shift binding assay (differential scanning fluorimetry). The procedure:
Each sample was prepared in a total volume of 40 μL that contained a 5× final concentration of SYPRO orange (Invitrogen, Carlsbad, CA, USA) in buffer (20 mM of HEPES pH 7.5, 150 mM of NaCl, 1 mM of DTT, and 1 mM of MgCl2) and 4 μM of STING C-terminal domain protein with and without a test article. […] The resulting fluorescence intensity from the raw dissociation curve data were used to determine the melting temperature for STING protein alone or with a compound. Melting temperature from protein alone was then subtracted from all melting temperatures of protein in the presence of compound, and a resulting melting temperature vs. compound concentration provided apparent Kd values as generated using a sigmoidal dose–response (variable slope) equation in GraphPadPrism version 8.0 (GraphPad Software, Boston, MA, USA).
Target sequence in this assay (Q86WV6 139-379 H232R): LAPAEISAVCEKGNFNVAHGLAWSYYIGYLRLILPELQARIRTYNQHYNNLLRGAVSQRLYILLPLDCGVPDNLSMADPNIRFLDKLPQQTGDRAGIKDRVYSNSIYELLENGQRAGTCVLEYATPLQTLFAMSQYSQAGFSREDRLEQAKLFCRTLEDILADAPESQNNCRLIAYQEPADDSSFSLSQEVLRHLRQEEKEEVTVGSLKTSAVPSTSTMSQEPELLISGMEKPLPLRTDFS
In general terms: In DSF a fluorescence change marks the thermal transition of the protein.

The next data set concerns the target T2, ENPP1 (Homo sapiens, UniProt P22413).
T2 construct: purchased R&D Systems
T2 sequence (P22413 1-925): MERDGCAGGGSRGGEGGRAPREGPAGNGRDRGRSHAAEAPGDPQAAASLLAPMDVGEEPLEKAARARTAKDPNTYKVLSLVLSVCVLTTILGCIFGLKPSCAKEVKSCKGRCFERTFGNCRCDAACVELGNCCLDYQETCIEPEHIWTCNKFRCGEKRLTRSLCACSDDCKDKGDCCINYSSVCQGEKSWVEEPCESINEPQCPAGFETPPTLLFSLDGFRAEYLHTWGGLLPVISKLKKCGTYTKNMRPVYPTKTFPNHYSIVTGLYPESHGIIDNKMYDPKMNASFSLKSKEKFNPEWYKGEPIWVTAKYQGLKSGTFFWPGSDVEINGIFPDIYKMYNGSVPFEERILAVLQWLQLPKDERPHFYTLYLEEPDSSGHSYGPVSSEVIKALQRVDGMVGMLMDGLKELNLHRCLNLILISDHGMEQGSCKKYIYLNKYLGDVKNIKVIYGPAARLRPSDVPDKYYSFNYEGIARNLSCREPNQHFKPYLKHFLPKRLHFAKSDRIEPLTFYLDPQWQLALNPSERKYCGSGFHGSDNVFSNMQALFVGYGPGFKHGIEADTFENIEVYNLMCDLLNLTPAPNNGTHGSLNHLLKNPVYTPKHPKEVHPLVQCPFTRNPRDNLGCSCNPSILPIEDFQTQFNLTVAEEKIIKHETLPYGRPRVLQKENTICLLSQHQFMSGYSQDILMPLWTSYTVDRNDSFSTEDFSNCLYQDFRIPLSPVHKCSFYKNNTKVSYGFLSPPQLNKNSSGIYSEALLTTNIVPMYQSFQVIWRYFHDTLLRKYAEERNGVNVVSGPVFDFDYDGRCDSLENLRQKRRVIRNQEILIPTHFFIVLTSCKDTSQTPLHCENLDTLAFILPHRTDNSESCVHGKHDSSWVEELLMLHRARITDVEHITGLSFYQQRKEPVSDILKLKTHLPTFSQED
The data set is described as follows: ENPP1 stability assay. Format: in vitro ADME. The conditions noted are these: pH 9.5; 100 μM STING agonist, 26.5 nM recombinant human ENPP1, 37 °C, up to 2 h; read-out: ENPP1 t½.

pEC50, pKd: −log10 of the molar value. Where “and” joins values, the source holds several entries; their conditions need not be identical. Equal entries are not always repeated. Where two headings read alike, the source gives them in different places.

Broadly, the pEC50 is the EC50 on a negative log10 scale, so that one unit is a factor of ten. The pKd is the negative decadic logarithm of the Kd, by convention in mol/L. Turning to `CO[C@H]1[C@H]2OP(=O)(O)OC[C@@]34C[C@@H]3[C@@H](n3cnc5c(N)ncnc53)[C@H](O)[C@@H]4O[P@](=O)(S)OC[C@H]1O[C@H]2n1cnc2c(=O)[nH]c(N)nc21` [ALG-031048], the pEC50 was 6.88 at STING R232 [1]; 5.28 in data set [2] (read-out: EC50 CD83, Immature Dendritic Cells); 4.75 in data set [2] (read-out: EC50 CD86, Immature Dendritic Cells). The “Surface expression of CD86 and CD83 (in words)” value in data set [2] (iDCs and, to a lesser degree, monocytes, 24 and 72 h) was “upregulated the surface expression of CD86 and CD83”. Moreover, the pKd on STING R232 [3] is 5.57. Moreover, the Maximum temperature shift on STING R232 [3] (STING R232 thermal shift assay, mean±standard deviation) is 13.8 °C and 13.8±2.98 °C. Also, the half-life at 100 μM on ENPP1 is over 2 h.
